Measurements taken from patent US6794388B2, “Succinic acid salts of 5,7,14-triazatetracyclo[10.3.1.02,11.04,9] -hexadeca-1(11),3,5,7,9-pentaene and pharmaceutical compositions thereof” (Pfizer Inc., priority 2001, dated 2004).
Where a name gives a salt, the structure may show the parent alone.

Assays:
Type in all cases: physicochemical
aqueous solubility = assay: aqueous solubility
Method: (§1) Although in general the acid addition salts of 5,8,14-triazatetracyclo[10.3.1.0^2,11.0^4,9]-hexadeca-2(11),3,5,7,9-pentaene are all crystalline, the majority of those salts are so hygroscopic as to render them poor candidates for pharmaceutical formulation use.
(§2) The aqueous solubility of the anhydrous succinate salt has been measured under various conditions: >10 mg/mL in pH 4 buffer; >10 mg/mL in pH 10 buffer; >10 mg/mL in 0.1 N HCl; and >10 mg/mL in 0.1 N NaOH. The solubility of the anhydrous succinate salt has also been measured in various solvents: >10 mg/mL in methanol; 0.1 mg/mL in acetonitrile and <0.01 mg/mL in hexane. The hygroscopicity of the anhydrous succinate salt has also been measured under various conditions: 0.0% moisture gain at 20% Relative Humidity; 0.3% moisture gain at 40% Relative Humidity; 0.6% moisture gain at 60% Relative Humidity; 0.9% moisture gain at 80% Relative Humidity and 1.3% moisture gain at 95% Relative Humidity.

[1] = solubility in various solvents; conditions: organic solvent or mixture
Method: as §2

[2] = hygroscopicity (moisture gain on exposure to relative humidity in a moisture chamber)
Method: as §1, §2

[3] = solid state stability (light, elevated temperature, high humidity challenges); conditions: elevated temperatures
From the text: as §1

[4] = native pH in aqueous solution

In the case of `c1cnc2cc3c(cc2n1)C1CNCC3C1` [anhydrous succinate salt, Anhydrous Succinate Salt of 5,8,14-Triazatetracyclo[10.3.1.0^2,11.0^4,9]-hexadeca-2(11),3,5,7,9-pentaene], the solubility (aqueous solubility; aqueous buffer, in 0.1 N NaOH) is reported as > 10000 µg/mL, the solubility (aqueous solubility; aqueous buffer, in pH 4 buffer) is reported as > 10000 µg/mL and the solubility (aqueous solubility; aqueous buffer, in pH 10 buffer) is reported as > 10000 µg/mL. For the same compound, the solubility (aqueous solubility; simulated gastric fluid, in 0.1 N HCl) was > 10000 µg/mL, the solubility (aqueous solubility; water) was 442000 µg/mL and the solubility ([1]; in acetonitrile) was 100 µg/mL. For the same compound, the solubility ([1]; in hexane) was < 10 µg/mL, the solubility ([1]; in methanol) was > 10000 µg/mL and the “hygroscopicity, moisture gain” value ([2]; at 20% Relative Humidity) was 0.0%. For the same compound, the “hygroscopicity, moisture gain” value ([2]; at 40% Relative Humidity) was 0.3%, the “hygroscopicity, moisture gain” value ([2]; at 60% Relative Humidity) was 0.6% and the “hygroscopicity, moisture gain” value ([2]; at 80% Relative Humidity) was 0.9%. The hygroscopicity ([2]; at 90% relative humidity) was “approximately 1.97%”, the “hygroscopicity, moisture gain” value ([2]; at 95% Relative Humidity) was 1.3% and the hygroscopicity ([2]; exposure to 90% relative humidity in a moisture chamber) was “approximately 1.97 % wt/wt”. For the same compound, the solid state stability [3] was “excellent solid state stability” and the “native pH in aqueous solution” value [4] was 4.7.
